The text below walks through data of PMC10823475, “Design, Synthesis, and Evaluation of Inhibitors of Hedgehog Acyltransferase” (Journal of Medicinal Chemistry, 2024).

The structures appear in SMILES notation. Where two headings read alike, the source gives them in different places.

For assay [1], the system named is palmitoylation of SHH in HEK293a SHH+ cells. The assay can be described thus: Cell-based YnPal metabolic tagging assay. The conditions noted are these: for IC50: HEK293-A, HEK293a SHH+ cells. The procedure:
We first quantified the direct impact of previously reported HHAT inhibitors on palmitoylation of SHH using a cell-based metabolic tagging assay.[27],[36] In this assay, HEK293a SHH^+ cells were incubated with varying concentrations of inhibitors in the presence of alkyne palmitic acid derivative YnPal (Figure 5A).[35] Following cell lysis and bioorthogonal derivatization of palmitoylated proteins with capture reagent azide-TAMRA-biotin (AzTB)^67 using a copper catalyzed azide–alkyne cycloaddition (CuAAC) reaction, AzTB-labeled SHH is shifted to higher apparent molecular weight in sodium dodecyl sulfate polyacrylamide gel electrophoresis (SDS-PAGE), thereby enabling quantification of acylated SHH by α-SHH immunoblotting (compound 2, 17, and 22) or fluorescence imaging (compound 24, 28, and 30; SI, Figure S5–S6).[42]
HEK293a SHH^+ cells were plated at 500,000 cells/well of a 6-well plate in a volume of 3 mL/well and cultured for 24 h as described. Cells were treated with DMSO vehicle, or RUSKI compounds in DMSO (0.016–10 μM final). After 1 h, 3 μL of YnPal (20 mM DMSO stock; 20 μM final) were added and the cells were cultured for another 6 h. Subsequently, cells were washed with PBS and lysed using PBS supplemented with 1% Triton, 0.1% SDS and Complete EDTA-free protease inhibitor cocktail (Roche Diagnostics). Cells were scraped off the plates and lysates centrifuged at 13 000g for 10 min at 4 °C to remove cell debris. Protein concentration was determined using the DC Protein Assay (Bio-Rad) following the manufacturer’s procedure.
The click reaction in cell lysate was performed as previously described.[42] Briefly, 1 μL AzTB (10 mM in DMSO, 100x), 2 μL CuSO4 (50 mM in H2O, 50x), 2 μL tris(2 carboxyethyl)phosphine hydrochloride (TCEP) (50 mM in H2O, 50×), and 1 μL tris[(1-benzyl-1H-1,2,3-triazol-4-yl)methyl]amine (TBTA, 10 mM in DMSO, 100×) were mixed. Then 6 μL of this click mixture were added to 100 μL of lysate, adjusted with lysis buffer to a protein concentration of 1 mg/mL. The click reaction was shaken at RT for 1 h. Subsequently, proteins were precipitated by adding methanol, chloroform, and water at a ratio of 2:0.5:1 to remove click reagents and excess of AzTB. The mixture was centrifuged (13 000g, 5 min at 4 °C) and the methanol and water containing top layer removed. Following the addition of an excess of methanol, the precipitated proteins were isolated by centrifugation (13 000g, 10 min at 4 °C) and washed twice with methanol. The protein pellets were air-dried and redissolved in PBS containing 0.2% SDS and 0.1 mM DTT using sonication, and adjusted to a final protein concentration of 1 mg/mL.
For enrichment of YnPal-labeled proteins, 100 μg of lysate were incubated with 30 μL of prewashed (3 × 500 μL of 0.2% SDS in PBS) Dynabeads MyOne Streptavidin C1 beads (Invitrogen) for 1 h at room temperature. Beads ware washed twice with 500 μL of 0.2% SDS in PBS and boiled for 10 min in 15 μL of PBS containing SDS-PAGE sample buffer. The entire pull-down sample and 10 μg of total lysate and supernatant fractions were loaded on a 15% SDS-PAGE gel. Fluorescence was scanned using a Typhoon imager (GE Healthcare; excitation laser: 532 nm, emission filter: LPG (575–700 nm); PMT: 750 V).
Proteins were transferred to nitrocellulose membrane using a wet transfer apparatus (100 V, 1 h). Membranes were blocked with 5% BSA in TBS-T (0.1% Tween-20, 50 mM Tris, 150 mM NaCl, pH 7.5) for 1 h at room temperature, followed by overnight incubation with SHH H-160 primary antibody (Santa Cruz Biotechnology; sc-9024; 1:200 in TBS-T + 0.5% BSA) or α-tubulin primary antibody (Santa Cruz Biotechnology; sc-8035; 1:200 in TBS-T + 0.5% BSA) at 4 °C. Membranes were washed with TBS-T and further incubated at RT for 1 h with the appropriate secondary antibody (HRP conjugated goat-antimouse IgG (H+L) or goat-antirabbit IgG (H+L); Advansta; 1:10,000 in TBS-T + 0.5% BSA). […]

Assay [2] has as its system HH signaling (HEK293a SHH+ conditioned media on SHH-Light2 cells). The assay is described as follows: Light2 dual-luciferase cell-based HH signaling assay (Firefly). The procedure:
Subsequently, the effect of analogues on HH signaling was investigated using a cellular luciferase reporter assay. Light2 cells derived from NIH3T3 cells constitutively express Renilla luciferase as an internal control for cell density alongside Firefly luciferase under the control of a HH-responsive Gli promoter.[43] HEK293a SHH^+ cells were incubated with varying inhibitor concentrations and SHH-containing conditioned media transferred to the NIH3T3-Light2 cells to mimic paracrine signaling[30],[35] (Figure 6A).
The Light2 cell-based signaling assay has been described previously.[35] Briefly, HEK293a SHH^+ cells were plated at 120,000 cells/well of a 12-well plate in a volume of 1 mL/well and cultured as described above. After 24 h, cells were washed with PBS, followed by addition of 1 mL of media containing 0.2% DMSO or varying inhibitor concentrations in DMSO (0.041–30 μM final). Additionally, SHH-Light2 cells were plated at 20,000 cells/well of a 96-well plate in 50 μL media. After another 24 h, 300 μL of the conditioned media were collected from each well of the treated HEK293a SHH^+ cells, centrifuged at 1000g for 10 min to remove detached cells and split into three wells of the SHH-Light2 cells (100 μL/well; 150 μL final volume in each well). The treated Light2 cells were cultured for another 48 h and subsequently washed with PBS. Firefly and Renilla luciferase activity was measured using the Dual-Luciferase reporter system (Promega Corporation, USA). Then 20 μL of 1× passive lysis buffer were added to each well. After 30 min at RT, 5 μL of each lysate were transferred to a white opaque 96-well plate. Then 20 μL/well of luciferase assay reagent II was added and the luminescence immediately recorded using a SpectraMax i3x plate reader (Molecular Devices LLC). Subsequently, 20 μL/well of 1× Stop&Glo substrate in Stop&Glo buffer was added and the luminescence immediately recorded for a second time. Data was evaluated using a “sigmoidal dose response (variable slope)” model in GraphPad Prism 5 (GraphPad Software, Inc.). The luminescence signal of the Firefly luciferase was normalized to the DMSO vehicle (100%) and the unconditioned media (0%) controls.

The mark [3] stands for this setting: Firefly luciferase, Light2 cells, read-out: HH signaling inhibition EC50 (CI95).
Setting [4] is: read-out: YnPal tagging IC50 (CI95).

As to `Cc1cccc([C@H]2c3ccsc3CCN2C(=O)CNCC(C)C)n1` [Compound 30], the IC50 (as a rule, the concentration at which inhibition is half-maximal) in assay [1] (read-out: IC50, cellular YnPal labeling of SHH) turned out to be 0.076 µM. Moreover, the EC50 (commonly the midpoint of the concentration-response curve) in assay [2] (setting [3]) was 0.1 µM; in assay [2] (Light2 luciferase reporter, read-out: EC50 against HH signaling), 0.099 µM.
With `CC(=O)N1CCc2sccc2C1c1ccccc1` (stereo not drawn) [Compound 5], in assay [2] (setting [3]), the EC50 was determined as 4.56 µM.
Turning to `Cc1cccc(C2c3ccsc3CCN2C(=O)CNCC(C)C)n1` (stereo not drawn) [Compound 24], the half-inhibitory concentration (IC50) in assay [1] (setting [4]) was determined as 0.49 µM. The EC50 in assay [2] (setting [3]) is 1.18 µM.
In the case of `Cc1cccc([C@@H]2c3ccsc3CCN2C(=O)CNCC(C)C)n1` [Compound 28], in assay [1], the “inhibition of SHH tagging by YnPal” value is “inactive”. Also, the IC50 in assay [1] (setting [4]) was greater than 10 µM. In addition, the “effect on HH signaling” value in assay [2] was “inactive”. Also, the 50% effective concentration (EC50) in assay [2] (setting [3]) is greater than 30 µM.
Take `C=CCNCC(=O)N1CCc2sccc2C1COc1ccc(Cl)cc1` (stereo not drawn) [Compound 2]: the IC50 in assay [1] (setting [4]) was found to be 2.35 µM.
Consider `CCC(C)CNCC(=O)N1CCc2sccc2C1c1cccc(C)c1` (stereo not drawn) [Compound 17], for which the IC50 in assay [1] (setting [4]) is 0.57 µM. In assay [2] (setting [3]), the 50% effective concentration (EC50) was determined as 1.17 µM.
Taken in the same sequence, the figures for `CCC(C)CNCC(=O)N1CCc2sccc2C1c1cccc(C)n1` (stereo not drawn) [Compound 22] were 1.08 µM and 0.58 µM.
